Values quoted from earlier work as cited in patent US20100136097A1, “Systems for modulating inflammation” (Searete LLC, a limited liability corporation of the State …, priority 2008, published 2010).

Tests used:
[1] = single agent, infused at 400 mg over one hour
[2] = tested on: Src family kinase
[3] = tested on: proteasomal activity in cultured breast cancer cells; conditions: through binding of copper
[4] = mice
[5] = tested on: Src family kinases (Src, Lck, Yes, Fyn); conditions: at nanomolar concentrations

Question: For `CCN(CC)CCCC(C)Nc1ccnc2cc(Cl)ccc12.O=P(O)(O)O.O=P(O)(O)O` (centres unmarked) [Chloroquine phosphate, 7-chloro-4-[[4-(diethylamino)-1-methylbutyl]amino]quinoline phosphate (1:2)], which tolerability of infusion [1] is on record?
Answer: Its tolerability of infusion is “without complication”.

Question: Which “inhibition of CpG-induced Src family kinase activation, or its dependent cellular responses” value [2] does the source give for `CCN(CC)CCCC(C)Nc1ccnc2cc(Cl)ccc12` (centres unmarked) [Chloroquine] here?
Answer: The value was “does not inhibit”.

Question: With `CCN(CC)C(=S)SSC(=S)N(CC)CC` [Disulfiram, 1-(diethylthiocarbamoyldisulfanyl)-N,N-diethyl-methanethioamide] as the compound, how does the proteasomal activity [3] read?
Answer: The proteasomal activity was “inhibits proteasomal activity”.

Question: With `Cl.Cl.Nc1ccccc1Oc1ccc2c(N)nsc2c1` [Example M62812, 3-amino-6-(2-aminophenoxy)-1,2-benzisothiazole dihydrochloride] as the compound, how does the “prevention of lethal septic shock” value [4] read?
Answer: The value was “prevents lethal septic shock”.

Question: For `Cc1nc(Nc2ncc(C(=O)Nc3c(C)cccc3Cl)s2)cc(N2CCN(CCO)CC2)n1.O` [dasatinib, N-(2-chloro-6-methylphenyl)-2-[[6-[4-(2-hydroxyethyl)-1-piperazinyl]-2-methyl-4-pyrimidinyl]amino]-5-thiazolecarboxamide, monohydrate], which “inhibition of Src family kinases (Src, Lck, Yes, Fyn)” value [5] is on record?
Answer: Its value is “inhibits”.
